Source: article PMC3573112, “Compatibility in the Ustilago maydis–Maize Interaction Requires Inhibition of Host Cysteine Proteases by the Fungal Effector Pit2” (PLoS Pathogens, 2013)
Where a SMILES comes first, the peptide text is derived from it. The star is where a group is joined. AMC = Cc1cc(=O)oc2cc(N*)ccc12; Cbz = O=C(OCc1ccccc1)*

Experiments:
[1] = biological target: T1, CP2 (corn cysteine protease 2) (Zea mays, UniProt Q43705); assay: fluorimetric protease assay with Z-Phe-Arg-AMC; type: biochemical; conditions: 10 min preincubation; 1 µM Z-Phe-Arg-AMC; pH 6.0; covalent
T1 construct: gene see1
T1 sequence (Q43705 143-360 limits assumed): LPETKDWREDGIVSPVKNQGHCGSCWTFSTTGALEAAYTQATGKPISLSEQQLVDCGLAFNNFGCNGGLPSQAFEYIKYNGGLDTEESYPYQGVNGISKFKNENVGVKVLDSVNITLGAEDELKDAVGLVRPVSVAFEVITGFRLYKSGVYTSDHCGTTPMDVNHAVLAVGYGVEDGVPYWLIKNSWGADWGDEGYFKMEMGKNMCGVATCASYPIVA

[2] = biological target: T1, CP2 (corn cysteine protease 2); assay: fluorimetric protease assay (AMC release, […] nm); type: biochemical; conditions: 1 µM substrate; pH 6.0
XCP2 = biological target: T2, XCP2 (Zea mays, UniProt B6TIC7); assay: fluorimetric protease assay (AMC release), apoplastic fluid; type: biochemical; conditions: 2 µM substrate; pH 6.0, room temperature; DTT
T2 construct: transiently expressed in Nicotiana benthamiana (pGreenII 0029); apoplastic fluid, not purified

CathepsinBIII (CatB) = biological target: T3, CathepsinBIII (CatB) (Zea mays, UniProt B6TLR9); assay: as above; type: biochemical; conditions: 2 µM substrate; pH 6.0, room temperature; DTT
T3 construct: transiently expressed in Nicotiana benthamiana (pGreenII 0029); apoplastic fluid, not purified
T3 sequence (B6TLR9 93-347): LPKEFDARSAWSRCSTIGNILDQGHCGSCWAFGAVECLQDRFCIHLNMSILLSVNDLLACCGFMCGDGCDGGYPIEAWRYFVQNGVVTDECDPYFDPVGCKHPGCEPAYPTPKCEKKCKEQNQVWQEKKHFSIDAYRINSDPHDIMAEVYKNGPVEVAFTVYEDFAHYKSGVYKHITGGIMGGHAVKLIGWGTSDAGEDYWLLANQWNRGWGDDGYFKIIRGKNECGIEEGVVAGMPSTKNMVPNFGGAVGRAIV

CP1A = biological target: T4, CP1A (Zea mays, UniProt B6T669); assay: as above; type: biochemical; conditions: 2 µM substrate; pH 6.0, room temperature; DTT
T4 construct: transiently expressed in Nicotiana benthamiana (pGreenII 0029); apoplastic fluid, not purified

CP2 = biological target: T5, CP2 (Zea mays, UniProt Q43705); assay: as above; type: biochemical; conditions: 2 µM substrate; pH 6.0, room temperature; DTT
T5 construct: gene see1; transiently expressed in Nicotiana benthamiana (pGreenII 0029); apoplastic fluid, not purified
T5 sequence (Q43705 143-360): T1 sequence (Q43705 143-360 limits assumed)

[3] = biological target: CP2 (corn cysteine protease 2) without signal peptide and prodomain, Gal4 activation domain fusion (pGADT7-CP2) (maize) (UniProt Q10717)

T2 sequence (B6TIC7 158-377): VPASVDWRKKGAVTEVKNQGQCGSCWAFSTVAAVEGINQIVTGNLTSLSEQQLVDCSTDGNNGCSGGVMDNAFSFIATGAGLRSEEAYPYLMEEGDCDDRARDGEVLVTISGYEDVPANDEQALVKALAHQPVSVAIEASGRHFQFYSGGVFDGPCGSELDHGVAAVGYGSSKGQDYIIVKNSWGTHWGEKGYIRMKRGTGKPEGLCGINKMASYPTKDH
T4 sequence (B6T669 130-463): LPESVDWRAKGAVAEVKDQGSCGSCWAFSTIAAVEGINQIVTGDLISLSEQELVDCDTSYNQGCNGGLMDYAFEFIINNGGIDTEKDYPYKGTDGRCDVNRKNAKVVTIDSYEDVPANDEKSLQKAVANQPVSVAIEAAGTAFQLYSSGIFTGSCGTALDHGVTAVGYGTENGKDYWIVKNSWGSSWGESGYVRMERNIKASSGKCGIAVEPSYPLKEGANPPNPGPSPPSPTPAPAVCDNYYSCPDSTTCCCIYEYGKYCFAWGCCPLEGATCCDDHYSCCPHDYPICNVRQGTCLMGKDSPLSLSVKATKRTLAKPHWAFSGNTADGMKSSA

With `CC(C)C[C@H](NC(=O)[C@H]1O[C@@H]1C(=O)O)C(=O)NCCCCN=C(N)N` [E-64] the “inhibition at 2.5 μM” value [1] was “inhibited by addition of the specific small molecule cysteine protease inhibitor E-64”.
In the case of `Cc1cc(=O)oc2cc(NC(=O)[C@H](CCCNC(=N)N)NC(=O)[C@H](Cc3ccccc3)NC(=O)OCc3ccccc3)ccc12` [Z-Phe-Arg-7-amido-4-methylcoumarin] (Cbz-Phe-Arg-{AMC}), the “fluorimetric protease assay (AMC release, 460 nm)” value [2] is reported as “Protease-activity was determined using the fluorescent substrate Z-Phe-Arg-AMC”, the “fluorimetric protease assay (AMC release), apoplastic fluid” value (XCP2) is reported as “Protease activity was determined using substrate Z-Phe-Arg-AMC” and the “fluorimetric protease assay (AMC release), apoplastic fluid” value (CathepsinBIII (CatB)) is reported as “Protease activity was determined using substrate Z-Phe-Arg-AMC”. The “fluorimetric protease assay (AMC release), apoplastic fluid” value (CP1A) was “Protease activity was determined using substrate Z-Phe-Arg-AMC” and the “fluorimetric protease assay (AMC release), apoplastic fluid” value (CP2) was “Protease activity was determined using substrate Z-Phe-Arg-AMC”.
“GST-Pit2 (Pit2 without signal peptide with N-terminal GST-tag, pRSET-GST-PP-Pit2) (natural protein)” showed an inhibition of the activity on Z-Phe-Arg-AMC of recombinant His-tagged CP2 (E. coli, refolded, activated by pH shift and pepsin) by 10 µM recombinant Pit2 (GST tag removed) [3] of 85 % inhibition.
